{"source": "patent US20250092031A1", "about": "“RIPK3 INHIBITORS AND METHODS OF USE” (Momentum Therapeutics, Inc., priority 2023, published 2025)", "data": [{"test_system": "Murine L929 cells", "test": "Necroptosis inhibition assay in L929 cells (mTNFα + zVAD, Sytox Green)", "format": "cell-based", "settings": "Mus musculus, 10 ng/ml mTNFα and 20 μM zVAD, 6 hours, Sytox Green fluorescence", "protocol": "Murine L929 cells (ATCC-CCL-1) were seeded at 10,000 cells/well in a 96-well plate. Cells were treated 48 hours after seeding with 10 ng/ml mTNFα (R&D Systems) and 20 μM zVAD (ChemShuttle) in the presence of different concentrations of compounds ranging from […] to 0.01 μM. Cells treated with 0.1% DMSO or cells treated with TNFα+zVAD were used as control and vehicle respectively.\nAssay plates containing cells were incubated for 6 hours at 37° C. and 5% CO2. Necroptosis was assessed using Sytox Green Nucleic Acid Stain (Invitrogen). After incubation, 100 μL of Sytox dye at 2 μM (2×) diluted in HBSS 1× was added in each well and incubated for 15 min at room temperature. Fluorescence (500ex/530em) was recorded using the Cytation 5 microplate reader (Biotek).\nPercentage of necroptosis inhibition was calculated as the percent compared to control and vehicle conditions which correspond to 100% and 0% respectively. The half-maximum necroptosis inhibition (IC50) levels were calculated using GraphPad Prism software and are shown in Table 3 (NT represents compound not tested).", "units": {"IC50": "µM"}, "values": [{"smiles": "O=C1CN(Cc2ccc(-c3ccc4nccc(Nc5ccc6occc6c5)c4c3)c(F)c2)CCN1", "note": "[Compound 287, 4-(4-(4-(benzofuran-5-ylamino)quinolin-6-yl)-3-fluorobenzyl)piperazin-2-one]", "IC50": "> 10"}, {"smiles": "COc1ccc(Nc2ccnc3ccc(-c4ccc(N5CCN(C)CC5)cc4)cc23)cc1OC", "note": "[Compound 19, N-(3,4-dimethoxyphenyl)-6-(4-(4-methylpiperazin-1-yl)phenyl)quinolin-4-amine]", "IC50": "> 10"}, {"smiles": "Fc1cc(CN2CCC(C(F)(F)F)CC2)ccc1-c1ccc2nccc(Nc3ccc4scnc4c3)c2c1", "note": "[Compound 42, N-(6-(2-fluoro-4-((4-(trifluoromethyl)piperidin-1-yl)methyl)phenyl)quinolin-4-yl)benzo[d]thiazol-5-amine]", "IC50": "< 10"}, {"smiles": "Cn1ncc2cc(Nc3ccnc4ccc(-c5ccc(CN6CCNC(=O)C6)cc5F)cc34)ccc21", "note": "[Compound 288, 4-(3-fluoro-4-(4-(1-methyl-1H-indazol-5-ylamino)quinolin-6-yl)benzyl)piperazin-2-one]", "IC50": "> 10"}, {"smiles": "O=C(c1ccc(-c2ccc3nccc(Nc4ccc5scnc5c4)c3c2)c(F)c1)N1C[C@H]2C[C@@H](C1)N2", "note": "[Compound 304, (4-(4-(benzo[d]thiazol-5-ylamino)quinolin-6-yl)-3-fluorophenyl)((1R,5S)-3,6-diazabicyclo[3.1.1]heptan-3-yl)methanone]", "IC50": "< 10"}, {"smiles": "c1cc(Nc2ccc3scnc3c2)c2cc(-c3ccc(C4CCNCC4)cc3)ccc2n1", "note": "[Compound 240, N-(6-(4-(piperidin-4-yl)phenyl)quinolin-4-yl)benzo[d]thiazol-5-amine]", "IC50": "> 1"}, {"smiles": "O=C1CN(Cc2ccc(-c3ccc4nccc(Nc5ccc6sccc6c5)c4c3)c(F)c2)CCN1", "note": "[Compound 256, 4-(4-(4-(benzo[b]thiophen-5-ylamino)quinolin-6-yl)-3-fluorobenzyl)piperazin-2-one]", "IC50": "> 10"}, {"smiles": "O=C1CN(Cc2ccc(-c3ccc4nccc(Nc5ccc6[nH]ncc6c5)c4c3)c(F)c2)CCN1", "note": "[Compound 271, 4-(4-(4-(1H-indazol-5-ylamino)quinolin-6-yl)-3-fluorobenzyl)piperazin-2-one]", "IC50": "> 10"}, {"smiles": "CN1CCC(c2ccc(Nc3ccnc4cc(-c5ccccc5F)ccc34)nc2)CC1", "note": "[Compound 3, 7-(2-fluorophenyl)-N-(5-(1-methylpiperidin-4-yl)pyridin-2-yl)quinolin-4-amine]", "IC50": "> 10"}, {"smiles": "O=C(c1ccc(-c2ccc3nccc(Nc4ccc5scnc5c4)c3c2)c(F)c1)N1[C@@H]2CNC[C@H]1C2", "note": "[Compound 308, (4-(4-(benzo[d]thiazol-5-ylamino)quinolin-6-yl)-3-fluorophenyl)((1R,5S)-3,6-diazabicyclo[3.1.1]heptan-6-yl)methanone]", "IC50": "< 10"}, {"smiles": "Cc1ccc(Oc2ccnc3cc(-c4ccc(CN5CCN(C)CC5)c(F)c4)ccc23)cc1", "note": "[Compound 10, 7-(3-fluoro-4-((4-methylpiperazin-1-yl)methyl)phenyl)-4-(p-tolyloxy)quinoline]", "IC50": "> 10"}, {"smiles": "COc1ccc(Nc2ccnc3ccc(-c4ccc(CN5CCN(C)CC5)cc4F)cc23)cc1OC", "note": "[Compound 32, N-(3,4-dimethoxyphenyl)-6-(2-fluoro-4-((4-methylpiperazin-1-yl)methyl)phenyl)quinolin-4-amine]", "IC50": "> 10"}, {"smiles": "CN1CCN(c2ccc(-c3ccc4nccc(Nc5ccc(Cl)c(Cl)c5)c4c3)cc2)CC1", "note": "[Compound 20, N-(3,4-dichlorophenyl)-6-(4-(4-methylpiperazin-1-yl)phenyl)quinolin-4-amine]", "IC50": "< 10"}, {"smiles": "Fc1cc(OC2CCNCC2)ccc1-c1ccc2c(Nc3ccc4scnc4c3)ccnc2c1", "note": "[Compound 309, N-(7-(2-fluoro-4-(piperidin-4-yloxy)phenyl)quinolin-4-yl)benzo[d]thiazol-5-amine]", "IC50": "< 10"}, {"smiles": "CC1CCCCN1C(=O)c1ccc(-c2ccc3c(Nc4ccc5scnc5c4)ccnc3c2)c(F)c1", "note": "(stereo not drawn) [Compound 248, (4-(4-(benzo[d]thiazol-5-ylamino)quinolin-7-yl)-3-fluorophenyl)(2-methylpiperidin-1-yl)methanone]", "IC50": "< 1"}, {"smiles": "COc1ccc(-c2ccc3c(Nc4ccc(C5CCN(C)CC5)c(F)c4)ccnc3c2)cc1", "note": "[Compound 2, N-(3-fluoro-4-(1-methylpiperidin-4-yl)phenyl)-7-(4-methoxyphenyl)quinolin-4-amine]", "IC50": "> 10"}, {"smiles": "O=C(c1ccc(-c2ccc3nccc(Nc4ccc5scnc5c4)c3c2)c(F)c1)N1CC2CNCC2C1", "note": "(stereo not drawn) [Compound 298, (4-(4-(benzo[d]thiazol-5-ylamino)quinolin-6-yl)-3-fluorophenyl)(hexahydropyrrolo[3,4-c]pyrrol-2(1H)-yl)methanone]", "IC50": "< 10"}, {"smiles": "CC(C)(C)OC(=O)N1CCN(Cc2ccc(-c3ccc4nccc(Nc5ccc6scnc6c5)c4c3)c(F)c2)CC1", "note": "[Compound 38, tert-butyl 4-(4-(4-(benzo[d]thiazol-5-ylamino)quinolin-6-yl)-3-fluorobenzyl)piperazine-1-carboxylate]", "IC50": "< 10"}, {"smiles": "CN1CCN(c2ccc(-c3ccc4nccc(Nc5ccc6scnc6c5)c4c3)cn2)CC1", "note": "[Compound 24, N-(6-(6-(4-methylpiperazin-1-yl)pyridin-3-yl)quinolin-4-yl)benzo[d]thiazol-5-amine]", "IC50": "< 10"}, {"smiles": "O=C(c1ccc(-c2ccc3c(Nc4ccc5scnc5c4)ccnc3c2)c(F)c1)N1CCC2(CCNC2)CC1", "note": "[Compound 314, (4-(4-(benzo[d]thiazol-5-ylamino)quinolin-7-yl)-3-fluorophenyl)(2,8-diazaspiro[4.5]decan-8-yl)methanone]", "IC50": "< 10"}, {"smiles": "Fc1cc(CN2CCNCC2)ccc1-c1ccc2nccc(Nc3ccc4sccc4c3)c2c1", "note": "[Compound 385, N-(benzo[b]thiophen-5-yl)-6-(2-fluoro-4-(piperazin-1-ylmethyl)phenyl)quinolin-4-amine]", "IC50": "> 10"}, {"smiles": "CN1CCC(c2ccc(Nc3ccnc4cc(-c5ccccn5)ccc34)nc2)CC1", "note": "[Compound 8, N-(5-(1-methylpiperidin-4-yl)pyridin-2-yl)-7-(pyridin-2-yl)quinolin-4-amine]", "IC50": "> 10"}, {"smiles": "O=C(c1ccc(-c2ccc3nccc(Nc4ccc5scnc5c4)c3c2)c(F)c1)N1CCOCC1", "note": "[Compound 243, (4-(4-(benzo[d]thiazol-5-ylamino)quinolin-6-yl)-3-fluorophenyl)(morpholino)methanone]", "IC50": "< 1"}, {"smiles": "O=C(c1ccc(-c2ccc3c(Nc4ccc5scnc5c4)ccnc3c2)c(F)c1)N1CC2CNCC2C1", "note": "(stereo not drawn) [Compound 302, (4-(4-(benzo[d]thiazol-5-ylamino)quinolin-7-yl)-3-fluorophenyl)(hexahydropyrrolo[3,4-c]pyrrol-2(1H)-yl)methanone]", "IC50": "< 10"}, {"smiles": "CN(C)C(=O)c1ccc(-c2ccc3c(Nc4ccc5scnc5c4)ccnc3c2)c(F)c1", "note": "[Compound 246, 4-(4-(benzo[d]thiazol-5-ylamino)quinolin-7-yl)-3-fluoro-N,N-dimethylbenzamide]", "IC50": "< 1"}, {"smiles": "c1cc(Nc2ccc3scnc3c2)c2cc(-c3ccc(N4CCCC4)cc3)ccc2n1", "note": "[Compound 30, N-(6-(4-(pyrrolidin-1-yl)phenyl)quinolin-4-yl)benzo[d]thiazol-5-amine]", "IC50": "> 10"}, {"smiles": "Fc1ccc(CN2CCCCC2)cc1-c1ccc2nccc(Nc3ccc4scnc4c3)c2c1", "note": "[Compound 55, N-(6-(2-fluoro-5-(piperidin-1-ylmethyl)phenyl)quinolin-4-yl)benzo[d]thiazol-5-amine]", "IC50": "< 10"}, {"smiles": "O=C(c1ccc(-c2ccc3c(Nc4ccc5scnc5c4)ccnc3c2)c(F)c1)N1CCCC1", "note": "[Compound 242, (4-(4-(benzo[d]thiazol-5-ylamino)quinolin-7-yl)-3-fluorophenyl)(pyrrolidin-1-yl)methanone]", "IC50": "< 1"}, {"smiles": "c1cc(Nc2ccc3scnc3c2)c2cc(-c3ccc(N4CCCCC4)nc3)ccc2n1", "note": "[Compound 25, N-(6-(6-(piperidin-1-yl)pyridin-3-yl)quinolin-4-yl)benzo[d]thiazol-5-amine]", "IC50": "> 10"}, {"smiles": "CC1CCCCN1C(=O)c1ccc(-c2ccc3nccc(Nc4ccc5scnc5c4)c3c2)c(F)c1", "note": "(stereo not drawn) [Compound 247, (4-(4-(benzo[d]thiazol-5-ylamino)quinolin-6-yl)-3-fluorophenyl)(2-methylpiperidin-1-yl)methanone]", "IC50": "> 1"}, {"smiles": "CN1CCC(c2ccc(Nc3ccc4nccc(Nc5ccc6scnc6c5)c4c3)cc2F)CC1", "note": "[Compound 4, N4-(benzo[d]thiazol-5-yl)-N6-(3-fluoro-4-(1-methylpiperidin-4-yl)phenyl)quinoline-4,6-diamine]", "IC50": "> 10"}, {"smiles": "CN1CCC(c2ccc(Nc3ccc4nccc(Nc5ccc6scnc6c5)c4c3)nc2)CC1", "note": "[Compound 9, N4-(benzo[d]thiazol-5-yl)-N6-(5-(1-methylpiperidin-4-yl)pyridin-2-yl)quinoline-4,6-diamine]", "IC50": "> 10"}, {"smiles": "Fc1ccc(CN2CCCCC2)cc1-c1ccc2c(Nc3ccc4scnc4c3)ccnc2c1", "note": "[Compound 56, N-(7-(2-fluoro-5-(piperidin-1-ylmethyl)phenyl)quinolin-4-yl)benzo[d]thiazol-5-amine]", "IC50": "> 10"}, {"smiles": "c1cc(Nc2ccc3scnc3c2)c2cc(-c3ccc(OCCN4CCCCC4)cc3)ccc2n1", "note": "[Compound 44, N-(6-(4-(2-(piperidin-1-yl)ethoxy)phenyl)quinolin-4-yl)benzo[d]thiazol-5-amine]", "IC50": "< 10"}, {"smiles": "O=C(c1ccc(-c2ccc3nccc(Nc4ccc5scnc5c4)c3c2)nc1)N1CC2(CNC2)C1", "note": "[Compound 294, (6-(4-(benzo[d]thiazol-5-ylamino)quinolin-6-yl)pyridin-3-yl)(2,6-diazaspiro[3.3]heptan-2-yl)methanone]", "IC50": "> 10"}, {"smiles": "c1cc(Nc2ccc3scnc3c2)c2cc(-c3ccc(N4CCOCC4)cc3)ccc2n1", "note": "[Compound 18, N-(6-(4-morpholinophenyl)quinolin-4-yl)benzo[d]thiazol-5-amine]", "IC50": "< 10"}]}]}
